Data published in US6811998B2, “Conjugates of uncompetitive inhibitors of inosine monophosphate dehydrogenase” (priority 1999, dated 2004).

Legend:
IMPDH II [1] = biological target: T1, IMPDH II (Homo sapiens, UniProt P12268); experiment: Inhibition constants of ligand inhibitors: NADH formation at 340 nm, 10 minutes, 40° C.; type: biochemical; details: IMPDH II 0.00065 U/ml, non-linear curve fit
IMPDH II [2] = biological target: T1, IMPDH II; experiment: IC50 by slightly different method: enzyme rate on HITACHI 917 as in Examples 20 and 29, no antibody, saline sample; type: biochemical; set-up: made in house; host or cells: E. coli; details: values marked *: HITACHI 917 method
Experimental: One liter of an enzyme reagent, or second reagent, was prepared as follows. Approximately 800 ml deionized water was dispensed into a container and 168.8 grams of NaTAPSO was added and completely dissolved. Next, 1.15 grams of TCEP was dissolved. Next 31.4 grams of IMP was dissolved, then 2.23 grams of Na2EDTA were dissolved. Next 1.0 gram of SUTTOCIDE A was dissolved. The volume was adjusted to one liter with deionized water. Enough recombinant human IMPDH-II was added (as a 35% ammonium sulfate precipitate of an E. coli lysate supernatant) and dissolved completely in order to achieve a change in absorbance at 340 nm of 780×10^−4 over 5 minutes at 37° C. […]
(§1) An HITACHI 917 analyzer (Roche Diagnostics Corp., Indianapolis) was programmed to dispense 3 μl of sample and 150 μl of antibody reagent into a 37° C. cuvette, which were then mixed and incubated for 5 minutes after which time 150 μl of enzyme reagent was added and mixed. The rate at 340 nm (mA/min) was calculated during the period 3 minutes 13 seconds to 4 minutes 42 seconds (read window 29-34) following enzyme reagent addition.
One liter of a second reagent was prepared as follows. […] Enough recombinant human IMPDH-II was added (as a 35% ammonium sulfate precipitate of an E. coli lysate supernatant) and dissolved completely in order to achieve a change in absorbance at 340 nm of 3100×10^−4 over 5 minutes at 37° C. […]

IMPDH II [3] = biological target: T1, IMPDH II; experiment: Homogeneous enzyme immunoassay with ligand-inhibitor conjugate (thyroxine and theophylline); type: biochemical; set-up: made in house; host or cells: E. coli; details: compared with MPA-theophylline
Experimental: as §1
Saline samples spiked with theophylline were assayed using the method of the present invention. Theophylline (Sigma Chemical) was first dissolved in saline (1 mg/10 ml) and then diluted to achieve concentrations of 0, 5, 10, 20, 40 and 50 μg/ml. An HITACHI 717 analyzer (Roche Diagnostics Corp., Indianapolis) was programmed to dispense 3 μl of sample and 150 μl of first reagent into a 37° C. cuvette, which were then mixed and incubated for 5 minutes, after which time 150 μl of second reagent was added and mixed. The difference in absorbance at 340 nm was calculated from the initial addition of the second reagent to 5 minutes following the second reagent addition.
J. Org. Chem. 61, 2236-2241, (1996).

IMPDH = experiment: Sensitivity of mycophenolic acid inhibition of IMPDH; type: biochemical
IMPDH-I = IMPDH-I (Homo sapiens, UniProt P20839); details: read-out: Ki (IC50), J. Biol. Chem. 268, 27286-27290 (1993); cited from earlier work
IMPDH II [4] = biological target: T1, IMPDH II; experiment: IMPDH activity as a function of ligand-inhibitor conjugate, antibody and analyte concentration (HITACHI 717, NADH at 340 nm); type: biochemical; set-up: made in house; host or cells: E. coli
Experimental: One liter of an antibody reagent, or first reagent, was prepared as follows. Approximately 800 ml deionized water was dispensed into a container and 6.0 grams of ACES were added and dissolved. The pH was adjusted to 6.0 with 2N NaOH. Then 0.53 grams NAD were added and dissolved completely. Next 10 ml ascites anti-MPA monoclonal antibody was added. Then 0.95 grams sodium azide was added and dissolved, and finally 1.0 gram of SUTTOCIDE A (GAF Chemicals Corp.) was added and dissolved. The volume was adjusted to one liter with deionized water.
One liter of an enzyme reagent, or second reagent, was prepared as follows. Approximately 800 ml deionized water was dispensed into a container and 56.3 grams of NaTAPSO was added and completely dissolved. Then 81.6 grams of sodium acetate-3H2O were added and dissolved. Next, 1.15 grams of TCEP were added and dissolved. Next 0.319 grams of IMP were added and dissolved, then 2.23 grams of Na2EDTA were added and dissolved. Next 1.0 gram of SUTTOCIDE A was added and dissolved. The volume was adjusted to one liter with deionized water. Approximately 13.4 ml of recombinant human IMPDH-II were added (E. coli lysate) and dissolved completely in order to achieve a change in absorbance at 340 nm of 4400×10^−4 over 5 minutes at 37° C. Next 0.002 grams of ligand-inhibitor conjugate (MPA-MPA, Example 42) were added and dissolved.
Human plasma samples spiked with mycophenolic acid were assayed for MPA using the present invention. An HITACHI 717 analyzer (Roche Diagnostics Corp. Indianapolis) was programmed to dispense 3 μl of sample and 150 μl of antibody reagent into a 37° C. cuvette, which were then mixed and incubated for 5 minutes after which time 150 μl of enzyme reagent was added and mixed. The difference in absorbance at 340 nm was calculated from the initial addition of enzyme reagent to 5 minutes following enzyme reagent addition.
With sample set A, the reagents contained no antibody or ligand-inhibitor and produced maximum IMPDH activity. With sample set B, the enzyme reagent contained ligand inhibitor and was used to show the effect of ligand inhibitor on IMPDH activity.

IMPDH-I, sequence (P20839 whole entry): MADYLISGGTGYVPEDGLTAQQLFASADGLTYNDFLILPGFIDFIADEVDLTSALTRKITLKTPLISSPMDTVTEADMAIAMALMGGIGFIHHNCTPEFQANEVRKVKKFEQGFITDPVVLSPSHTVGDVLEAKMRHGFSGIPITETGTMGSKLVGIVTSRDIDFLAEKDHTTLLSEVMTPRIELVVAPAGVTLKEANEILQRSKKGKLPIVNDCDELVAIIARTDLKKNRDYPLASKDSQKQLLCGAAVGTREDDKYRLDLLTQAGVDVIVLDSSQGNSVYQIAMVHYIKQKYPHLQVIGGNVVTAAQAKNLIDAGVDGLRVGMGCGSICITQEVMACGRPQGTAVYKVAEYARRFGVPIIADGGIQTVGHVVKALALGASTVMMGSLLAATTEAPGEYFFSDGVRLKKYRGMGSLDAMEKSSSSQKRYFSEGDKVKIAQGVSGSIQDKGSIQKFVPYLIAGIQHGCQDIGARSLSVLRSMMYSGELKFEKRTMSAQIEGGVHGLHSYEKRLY

5′-(digoxigenin-3-yl-β-amidomethyl)-MPA [16A]
IC50 (IMPDH II [1]): 170 nM

5′-(digoxigenin-3-yl-β-amidomethyl)-MPA [16B]
IC50 (IMPDH II [1]): 68 nM

5′-[(digoxigenin-3-yl)-oxymethylcarbonyl-DADOO-carbonylmethyl]-MPA [compound 26]
IC50 (IMPDH II [1]): 170 nM

5′-[(gentamicin[C1a]-N^1-carbonyl-oxy)-isoprenyl]-MPA
IC50 (IMPDH II [1]): 660 nM

5′-[(gentamicin[C1a]-N^1-terephthaloyl)-amino-isoprenyl]-MPA [U]
IC50 (IMPDH II [1]): 270 nM

5′-[(isoprenyloxycarbonylaminoethyleneamido)-thyroxine]-MPA [compound 11]
IC50 (IMPDH II [2]): 83 nM
sensitivity in an immunoassay (IMPDH II [3]): greater sensitivity

5′-[(phenytoin-3-butyramido)-isoprenyl]-MPA
IC50 (IMPDH II [1]): 88 nM

5′-[(theophylline-8-butyramidoethylaminocarbonyloxy)-isoprenyl]-MPA [compound 20]
IC50 (IMPDH II [2]): 250 nM

COc1c(C)c2c(c(O)c1C/C=C(\C)CCC(=O)O)C(=O)OC2 [MPA, mycophenolic acid]
sensitivity of mycophenolic acid inhibition (IMPDH): 10 to 20 nM
Ki (IMPDH-I): 37 nM
ΔA × 10^−4 @ 340 nm (IMPDH II [4]; set A: sample MPA 5 μg/ml, no anti-MPA, no MPA—MPA): 1939 × 10^−4
ΔA × 10^−4 @ 340 nm (IMPDH II [4]; set A: sample MPA 10 μg/ml, no anti-MPA, no MPA—MPA): 541 × 10^−4
ΔA × 10^−4 @ 340 nm (IMPDH II [4]; set E: sample MPA 5 μg/ml, anti-MPA 1:100, no MPA—MPA): 4075 × 10^−4
ΔA × 10^−4 @ 340 nm (IMPDH II [4]; set E: sample MPA 10 μg/ml, anti-MPA 1:100, no MPA—MPA): 3667 × 10^−4

MPA-isoprenyl alcohol [3A]
IC50 (IMPDH II [1]): 48 nM

MPA-isoprenyl alcohol [3B]
IC50 (IMPDH II [1]): 13 nM
